Source: the supplement of paper PMC10307832

Compound: COC1=C(C=C(C=C1)C2=CC3=NC=CN3C(=N2)NC4=C(C=CC=N4)C(=O)N)OC [BAY61-3606] + O=C(CCCCCCC(=O)Nc1ccccc1)NO [Vorinostat] (partner 1 µM)
Assay: relative viability (nuclei count vs DMSO), 5 days (fraction); higher = more cells survive
Conditions: first compound 0.2 µM
Procedure, shortened: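 Relative viability equals treated-well nuclei counts divided by vehicle-well nuclei counts. Counts came from 4× images of lung cancer cell lines grown in 1536-well plates for 5 days after pin-tool dosing on the day after seeding. Dosing used one drug alone or a fixed anchor-drug dose plus five library-drug doses (not always all listed) in √10 steps, and values are medians of duplicate plates.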

How did the relative viability turn out when NCI-H1975 was run?
The relative viability was 0.712.

HOP-62 was tested. Which relative viability did it give?
Its relative viability is 0.538.

How did the relative viability turn out when NCI-H2405 was run?
Its relative viability is 1.15.

For NCI-H1355, which relative viability is on record?
Its relative viability is 0.574.

NCI-H838 was tested. Which relative viability did it give?
The relative viability was 0.7.

With CAL-12T as the cell line, how does the relative viability read?
Its relative viability is 0.725.

NCI-H1666 was tested. Which relative viability did it give?
Its relative viability is 1.12.

Which relative viability does the source give for EPLC-272H here?
Its relative viability is 0.579.

With NCI-H2347 as the cell line, how does the relative viability read?
The relative viability was 0.598.

How did the relative viability turn out when NCI-H1915 was run?
The relative viability was 0.478.

How did the relative viability turn out when NCI-H1437 was run?
The relative viability was 0.856.

How did the relative viability turn out when NCI-H460 was run?
The relative viability was 0.709.

How did the relative viability turn out when NCI-H2085 was run?
Its relative viability is 0.796.

With HCC-15 as the cell line, how does the relative viability read?
Its relative viability is 0.866.

NCI-H1944 was tested. Which relative viability did it give?
Its relative viability is 0.515.

Which relative viability does the source give for EKVX here?
Its relative viability is 0.658.

Same assay, conditions: first compound 0.6325 µM

BEN was tested. Which relative viability did it give?
Its relative viability is 0.546.

HARA was tested. Which relative viability did it give?
Its relative viability is 0.462.

For SW 900, which relative viability is on record?
Its relative viability is 0.564.

Which relative viability does the source give for HCC-827 here?
Its relative viability is 0.85.

How did the relative viability turn out when NCI-H520 was run?
Its relative viability is 0.71.

With LOU-NH91 as the cell line, how does the relative viability read?
Its relative viability is 0.915.

With NCI-H2023 as the cell line, how does the relative viability read?
The relative viability was 0.82.

A-427 was tested. Which relative viability did it give?
The relative viability was 0.875.

With NCI-H647 as the cell line, how does the relative viability read?
Its relative viability is 0.529.

With PC-3 [JPC-3] as the cell line, how does the relative viability read?
The relative viability was 0.834.

Which relative viability does the source give for NCI-H1755 here?
Its relative viability is 0.803.

NCI-H650 was tested. Which relative viability did it give?
Its relative viability is 0.355.

With NCI-H3122 as the cell line, how does the relative viability read?
The relative viability was 1.05.

How did the relative viability turn out when NCI-H441 was run?
The relative viability was 0.803.

How did the relative viability turn out when NCI-H1395 was run?
Its relative viability is 0.705.

201T was tested. Which relative viability did it give?
Its relative viability is 1.09.

With NCI-H1975 as the cell line, how does the relative viability read?
The relative viability was 0.722.

With HOP-62 as the cell line, how does the relative viability read?
Its relative viability is 0.667.

Which relative viability does the source give for NCI-H2405 here?
Its relative viability is 0.968.

For NCI-H1355, which relative viability is on record?
The relative viability was 0.645.

For NCI-H838, which relative viability is on record?
The relative viability was 0.652.

Which relative viability does the source give for CAL-12T here?
Its relative viability is 0.81.

With NCI-H1666 as the cell line, how does the relative viability read?
The relative viability was 1.05.

EPLC-272H was tested. Which relative viability did it give?
Its relative viability is 0.339.

For NCI-H2347, which relative viability is on record?
Its relative viability is 0.575.

Which relative viability does the source give for NCI-H1915 here?
The relative viability was 0.511.

Which relative viability does the source give for NCI-H1437 here?
Its relative viability is 0.925.

For NCI-H460, which relative viability is on record?
Its relative viability is 0.65.

How did the relative viability turn out when NCI-H2085 was run?
Its relative viability is 0.839.

For HCC-15, which relative viability is on record?
The relative viability was 0.945.

Which relative viability does the source give for NCI-H1944 here?
The relative viability was 0.559.

How did the relative viability turn out when EKVX was run?
The relative viability was 0.783.

Same assay, conditions: first compound 2 µM

With BEN as the cell line, how does the relative viability read?
Its relative viability is 0.588.

With HARA as the cell line, how does the relative viability read?
Its relative viability is 0.466.

With SW 900 as the cell line, how does the relative viability read?
Its relative viability is 0.439.

For HCC-827, which relative viability is on record?
The relative viability was 0.941.

With NCI-H520 as the cell line, how does the relative viability read?
The relative viability was 0.638.

How did the relative viability turn out when LOU-NH91 was run?
Its relative viability is 0.858.

For NCI-H2023, which relative viability is on record?
Its relative viability is 0.468.

How did the relative viability turn out when A-427 was run?
Its relative viability is 0.888.

NCI-H647 was tested. Which relative viability did it give?
The relative viability was 0.287.

Which relative viability does the source give for PC-3 [JPC-3] here?
Its relative viability is 0.789.

Which relative viability does the source give for NCI-H1755 here?
Its relative viability is 0.733.

How did the relative viability turn out when NCI-H650 was run?
Its relative viability is 0.35.

NCI-H3122 was tested. Which relative viability did it give?
Its relative viability is 0.95.

NCI-H441 was tested. Which relative viability did it give?
The relative viability was 0.678.

For NCI-H1395, which relative viability is on record?
Its relative viability is 0.706.

With 201T as the cell line, how does the relative viability read?
Its relative viability is 1.06.

How did the relative viability turn out when NCI-H1975 was run?
The relative viability was 0.585.

For HOP-62, which relative viability is on record?
Its relative viability is 0.397.

For NCI-H2405, which relative viability is on record?
The relative viability was 0.824.

How did the relative viability turn out when NCI-H1355 was run?
Its relative viability is 0.604.

With NCI-H838 as the cell line, how does the relative viability read?
The relative viability was 0.553.

CAL-12T was tested. Which relative viability did it give?
The relative viability was 0.576.

How did the relative viability turn out when NCI-H1666 was run?
The relative viability was 1.18.

Which relative viability does the source give for EPLC-272H here?
The relative viability was 0.37.

For NCI-H2347, which relative viability is on record?
The relative viability was 0.597.

For NCI-H1915, which relative viability is on record?
The relative viability was 0.483.

NCI-H1437 was tested. Which relative viability did it give?
The relative viability was 0.751.

Which relative viability does the source give for NCI-H460 here?
Its relative viability is 0.447.

For NCI-H2085, which relative viability is on record?
Its relative viability is 0.811.

Which relative viability does the source give for HCC-15 here?
The relative viability was 0.803.

Which relative viability does the source give for NCI-H1944 here?
Its relative viability is 0.487.

For EKVX, which relative viability is on record?
The relative viability was 0.775.
